# Target: GCP-KRASG12D (Homo sapiens, UniProt P01116, G12D)
# Test: HSQC NMR KD of fragment hits
# Type: binding
# Details: fragment screen hits, active form of KRAS
# Source text: Next, we attempted to identify compounds that bind to GTP-KRAS via fragment-based screening ([21]–[23]). A library of 1,800 fragments was screened using both saturation transfer difference NMR ([24], [25]) and microscale thermophoresis ([26]) using KRAS^G12V-phosphomethylphosphonic acid guanylate ester (GCP-KRAS^G12V), from which 16 fragments were found and subsequently validated (hit rate 0.9%) by the observation of cross-peak shifts in the 2D ^1H/^15N heteronuclear single-quantum correlation (HSQC) NMR spectra of GCP-KRAS^G12D. We also screened a library of 13,800 compounds using uniformly ^15N-labeled GNP-KRAS by HSQC NMR experiments. Representatives of some of the fragments which bound the active form of KRAS from the 2 screens are depicted in Fig. 1A. […]
# 98 Measurement of dissociation constants KD for the compounds synthesized. NMR
# 99 was initially the only method that could provide K Ds for the weakly binding molecules to
# 100 support compound optimization. 1H/15N SoFast HMQC experiments(3) were recorded in
# 101 3mm NMR tubes (170µL filling) at a protein concentration of 70-100µM. Spectra were
# 102 recorded on a Avance III 700MHz spectrometer equipped with a cryogenically cooled
# 103 5mm TCI probe and 48 scans, 128 f1 increments and 2k data points in f2. Total
# 104 acquisition time was 22 minutes. 4 – 6 titration points were performed w ith individual
# 105 samples for each titration point made from 50mM DMSO -d6 stock solutions. Total
# 106 DMSO-d6 concentration was kept constant by backfilling every sample to a total of 4%
# 107 DMSO. KDs were calculated from the differences in chemical shift induced by t he small
# 108 molecules upon interacting with the protein. Average chemical shifts from the 1H and 15N
# 109 dimension were calculated according to the following equation:
# 110 ∆δobs = √[δH2 + (α ∙δN)2] with α set to 0.14
# 111 The Δδobs values at the respective ligand concentrations and the total concentration
# 112 of protein allow a fit to the KD value of the ligand as long as it is binding under fast
# 113 exchange conditions as was the case for most of the compounds tested.(4) Usually Δδobs
# 115 following equation was used to determine the individual KDs: […]
# 121 HEPES, 150 mM NaCl, 3% DMSO, pH 7.5. All measurements were carried out at 25°C.
# 122 Titrations were performed in inverse mode. The cell was loaded with compound solutions
# 123 in the range of 10 to 100 µM. All injections were performed using an initial injection of
# 124 0.5 μL followed by 19 injections of 2 μL of protein in the range of 130-500 µM. The data
# 125 were analyzed with the MicroCal PEAQ-ITC analysis software package. The first data
# Sequence of GCP-KRASG12D (P01116 1-169 isoform P01116-2 G12D): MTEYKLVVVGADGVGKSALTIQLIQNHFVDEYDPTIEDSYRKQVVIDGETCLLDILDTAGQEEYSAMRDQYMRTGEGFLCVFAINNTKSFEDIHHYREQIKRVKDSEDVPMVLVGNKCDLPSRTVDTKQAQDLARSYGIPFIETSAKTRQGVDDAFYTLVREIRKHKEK
row,Structure (SMILES),Kd [µM]
1,Clc1ccc2[nH]c3c(c2c1)CNCC3 [Compound 2],> 2000
2,O=C(c1c[nH]c2ccccc12)N1CCNCC1 [Compound 3],> 2000
3,Nc1ccc2nc(Cc3c[nH]c4ccccc34)[nH]c2c1 [Compound 7],1300

# The next lines start with the values.
row,Kd [µM],Structure (SMILES)
1,> 2000,Nc1nc2ccccc2n1Cc1ccccc1 [Compound 4]
2,> 5000,c1ccc2c(CN3CCOCC3)c[nH]c2c1 [Compound 6]

# Reference: publication PMC6689897, “Drugging an undruggable pocket on KRAS” (Proceedings of the National Academy of Sciences of the …, 2019)
